Source: patent publication US8389764B2, “Urea and sulfamide derivatives as inhibitors of TAFIa” (Sanofi, priority 2006, dated 2013)
Numbered stars: 1 amine (or outer) side, 2 acyl side, 3 side chain; on linkers, the order of the positions; unused ones are H or OH. Square brackets hold non-standard residues; d marks the D form. Peptide text beside a SMILES is read from it. * marks the point of attachment. ξ: configuration not given here. dCha = N[C@H](CC1CCCCC1)C(=O)O; Phe(ol) = N[C@H](CO)Cc1ccccc1; Cbz = O=C(OCc1ccccc1)*; CO = O=C([*:1])[*:2]; ξV = CC(C)C(N)C(=O)O

Biological target: T1, TAFIa (Homo sapiens, UniProt Q96IY4)
T1 construct: purchased American Diagnostica 874TAFIA
T1 sequence (Q96IY4 115-423): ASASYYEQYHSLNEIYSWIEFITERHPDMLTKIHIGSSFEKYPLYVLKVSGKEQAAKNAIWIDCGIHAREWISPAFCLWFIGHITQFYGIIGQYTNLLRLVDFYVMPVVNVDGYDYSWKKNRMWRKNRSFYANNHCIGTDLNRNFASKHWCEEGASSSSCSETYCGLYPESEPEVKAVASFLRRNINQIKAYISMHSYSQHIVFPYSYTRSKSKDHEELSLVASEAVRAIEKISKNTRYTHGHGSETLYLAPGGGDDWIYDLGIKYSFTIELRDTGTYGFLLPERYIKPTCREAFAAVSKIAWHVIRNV
Assay: TAFIa inhibition, Actichrome plasma TAFI activity kit (American Diagnostica)
Assay type: biochemical
Conditions: 15 min preincubation at room temperature, read at 420 nm, duplicate determination of serial dilutions
Protocol: The enzymic reaction was started by adding 10 μl of TAFIa developer (prediluted 1:2 with assay buffer).
The IC50 values were calculated from the averaged values (duplicate determination) of serial dilutions of the substance with the aid of the Softmax Pro software (version 4.8; Molecular Devices).

IC50 [nM]	Compound
615	CC1CCCC(NC(=O)[C@@H](NC(=O)[C@@H](CCCCNC(=O)OCc2ccccc2)NC(=O)N[C@@H](CCCCN)C(=O)O)C(C)C)C1 (stereo partly drawn) [Example 120]
370	CC(C)[C@H](NC(=O)[C@@H](CCCCNC(=O)OCc1ccccc1)NC(=O)N[C@@H](CCCCN)C(=O)O)C(=O)NCC(C)(C)C [Example 121]
525	CC(C)[C@H](NC(=O)[C@@H](CCCCNC(=O)OCc1ccccc1)NC(=O)N[C@@H](CCCCN)C(=O)O)C(=O)N[C@H](C)c1ccccc1 [Example 122]
18	CC1(C)[C@@H]2CC[C@@]1(C)[C@@H](NC(=O)[C@@H](CC1CCCCC1)NC(=O)N[C@@H](CCCN)C(=O)O)C2 [Example 124]
204	CC(C)[C@H](NC(=O)[C@@H](CCCCNC(=O)OCc1ccccc1)NC(=O)N[C@@H](CCCCN)C(=O)O)C(=O)NC(C)C(C)(C)C (stereo partly drawn) [Example 126]
693	CC(C)[C@H](NC(=O)[C@@H](CCCCNC(=O)OCc1ccccc1)NC(=O)N[C@@H](CCCCN)C(=O)O)C(=O)N[C@@H]1C[C@H]1c1ccccc1 [Example 127]
391	CC1CCCCC1NC(=O)[C@@H](NC(=O)[C@@H](CCCCNC(=O)OCc1ccccc1)NC(=O)N[C@@H](CCCCN)C(=O)O)C(C)C (stereo partly drawn) [Example 128]
608	CC(C)[C@H](NC(=O)[C@@H](CCCCNC(=O)OCc1ccccc1)NC(=O)N[C@@H](CCCCN)C(=O)O)C(=O)NCc1ccc(Cl)cc1 [Example 129]
636	COC(=O)[C@H](Cc1ccc(O)cc1)NC(=O)[C@@H](NC(=O)[C@@H](CC1CCCCC1)NC(=O)N[C@@H](CCCCN)C(=O)O)C(C)C [Example 133] ({Lys-CO}-[dCha]-Val-Tyr-OMe)
532	COC(=O)[C@H](Cc1c[nH]c2ccccc12)NC(=O)[C@@H](NC(=O)[C@@H](CCCCNC(=O)OCc1ccccc1)NC(=O)N[C@@H](CCCCN)C(=O)O)C(C)C [Example 134] ({Lys-CO}-[dK](Cbz)-Val-Trp-OMe)
522	CC(C)C(NC(=O)[C@@H](CC1CCCCC1)NC(=O)N[C@@H](CCCCN)C(=O)O)C(=O)N[C@H](CO)Cc1ccccc1 (stereo partly drawn) [Example 135] ({Lys-CO}-[dCha]-[ξV]-[Phe(ol)])
140	CC(C)[C@H](NC(=O)[C@@H](NC(=O)[C@@H](CC1CCCCC1)NC(=O)N[C@@H](CCCCN)C(=O)O)C(C)C)C(N)=O [Example 137] ({Lys-CO}-[dCha]-Val-Val-NH2)
376	CC(C)C(NC(=O)C(NC(=O)[C@@H](CCCCNC(=O)OCc1ccccc1)NC(=O)N[C@@H](CCCNC(=N)N)C(=O)O)C(C)C)C(N)=O (stereo partly drawn) [Example 139] ({Arg-CO}-[dK](Cbz)-[ξV]-[ξV]-NH2)
318	CC(C)[C@H](NC(=O)[C@@H](NC(=O)[C@@H](CCCCNC(=O)OCc1ccccc1)NC(=O)N[C@@H](CCCCN)C(=O)O)C(C)C)C(N)=O [Example 140] ({Lys-CO}-[dK](Cbz)-Val-Val-NH2)
10600	CC[C@@H](C)[C@H](NC(=O)[C@@H](CCCCNC(=O)OCc1ccccc1)NC(=O)N[C@@H](CCCCN)C(=O)O)C(N)=O [Example 142]
0.7	CC1(C)[C@@H]2CC[C@@]1(C)[C@@H](NC(=O)[C@@H](CC1CCCCC1)NC(=O)N[C@@H](CSCCN)C(=O)O)C2 [Example 142a]
6	CC1(C)[C@@H]2CC[C@@]1(C)[C@@H](NC(=O)[C@@H](CC1CCCCC1)NC(=O)N[C@@H](CS(=O)(=O)CCN)C(=O)O)C2 [Example 142b]
9760	COC(=O)[C@@H](NC(=O)[C@@H](NC(=O)[C@H](Cc1ccccc1)NS(=O)(=O)N[C@@H](CCCCN)C(=O)O)C(C)C)C(C)C [Example 143, (S)-6-Amino-2-(3-{(S)-1-[(S)-1-((S)-1-methoxycarbonyl-2-methyl-propylcarbamoyl)-2-methyl-propylcarbamoyl]-2-phenyl-ethyl}-sulfamidyl)-hexanoic acid]
357	CC1(C)[C@@H]2CC[C@@]1(C)[C@@H](NC(=O)[C@H](CC1CCC1)NS(=O)(=O)N[C@@H](CCCCN)C(=O)O)C2 [Example 150]
770	CC(C)CNC(=O)[C@@H](NC(=O)[C@H](CC1CCCCC1)NS(=O)(=O)N[C@@H](CCCCN)C(=O)O)C(C)C [Example 169]
22900	CC(C)(C)OC(=O)[C@H](CCCCN)NS(=O)(=O)N[C@@H](CC1CCCCC1)C(=O)N[C@@H]1C[C@H]2CC[C@]1(C)C2(C)C [Example 186]
